Results as given in patent US7598028B2, “Compositions and methods for detecting and treating prostate disorders” (The Regents of the University of Michigan, priority 2006, dated 2009).
Entries after “also recorded” stand apart in the source; their conditions may differ.

What was measured:
Type in all cases: cell-based, human
[1] = tested on: BPH-1 prostate epithelial cells; test: Proliferation assay, BPH-1; settings: 0.001-1 nM CXCL5, p<0.05
Experimental: (§1) Proliferation Assays. Cellular proliferation was assessed after plating cells at 50,000 cell/well in triplicate in six well plates and counting cells after 24 and 96 hours of incubation as described previously (see, e.g., Begley L, et al., Genes Chromosomes Cancer. 2006 February; 45(2): 136-46; herein incorporated by reference in its entirety). To assess the effects of exogenous CXCL5 on cellular proliferation, recombinant human CXCL5 (R&D Systems, 254-X) was added at the desired concentration in 2 ml SF media (or 2 ml SF media alone for control) to each well. The cells were re-fed at 24 hours growth and counted at 24 and 96 hours growth. Cell counts were normalized to 50,000 cells at 24 hours to account for any plating discrepancies. Averages and standard deviations of cell number were calculated for each time point under each media condition. For the antibody blockade experiments, 10,000 cells per well were plated in triplicate in 24 well dishes and preincubated with mouse anti-human CXCR2 (Biosource AHR1532X) or mouse antihuman CXCR4 (BD Pharmingen 555971) at 1 ug/ml for 1 hour prior to CXCL5 addition. Cells were maintained in media containing appropriate antibodies for the entirety of the experiment and were counted at 24 and 96 hours as above.

[2] = tested on: 22Rv1 prostate epithelial cells; test: Proliferation assay, 22Rv1; settings: 0.001-1 nM CXCL5, p<0.05
Experimental: as §1

[3] = tested on: PC3 prostate cancer cells; test: Matrigel invasion assay, PC3; settings: 20 nM chemokine
Experimental: Invasion Assays. Ability to invade through synthetic basement membrane was measured by plating 15,000 cells/well onto control or Matrigel-coated membranes in duplicate using 24-well BD Matrigel Invasion Chambers (Becton-Dickinson). Cells were plated in complete media and left untreated or pre-treated with 1 ug/ml anti-CXCR2 (Biosource AHR1532X) or anti-CXCR4 (BD Pharmingen 555971) for 2 hours, then exposed to complete media only or 20 nM CXCL5 as a chemo-attractant added to the companion plate. After 24 hours of incubation, the upper surface of the membranes were ‘scrubbed’ to remove non-invasive cells, and the cells that had invaded through to the lower surface of the Matrigel-coated membranes or to the bottom of the companion plate were fixed, stained, and counted. The number of invaded cells was calculated as the average number of cells present on the lower surface of the Matrigel-coated membrane and the companion plate counted over four low power (10× objective) microscopic fields per membrane over both wells per experimental condition. […]

p65 subunit of NF-kappaB = test: Western blot, p65 phosphorylation in N15C6 cells; settings: 10 pM, 100 pM or 1 nM CXCL5 tested
Experimental: Western blot analysis Cells were lysed, proteins resolved by electrophoresis and electroblotting was carried out as described previously (Chaib H, et al., (2001) Cancer Res. 61, 2390-2394; incorporated herein by reference in its entirety). Proteins were detected using antibodies against phospho-ERK½ (Cell Signaling no. 9101), total ERK½ (Cell Signaling, no. 9102), CXCR4 (Abcam no. ab2074), CXCR7 (Abcam #Ab12870, Abcam #Ab12871, Abcam #38089), phospho-p65 (Rockland no. 100-401-264), total p65 (Rockland no. 100-4165), or beta-actin (Santa Cruz no. sc-1615), in conjunction with an ECL detection system.
Western Blot and Protein Analysis. […] Proteins were detected using antibodies against phospho-ERK½ (Cell Signaling #9101), total ERK½ (Cell Signaling, #9102), phospho-p65, (Rockland #100-401-264), total p65 (Rockland #100-4165), STAT3 (9139), phospho-STAT3 (9138), beta-actin (Santa Cruz #sc-1615), or tubulin (Upstate, #DM1A) in conjunction with an ECL detection system. […] Densitometric quantitation of immunoblot films was accomplished by scanning the original films and converting the .tiff files to grayscale. Images were inverted, and mean band intensities were measured using ImageJ (www, followed by, .nih.gov). The mean intensity of adjacent background was also measured for each band and subtracted from band intensity.

ERK ½ = test: Western blot, ERK phosphorylation in LNCaP cells
Experimental: Western Blot Analysis. Cells were lysed, proteins resolved by electrophoresis, and electroblotting was carried out as described previously (see, e.g.; Chaib H, et al., 2001 Cancer Res. 61, 2390-2394; incorporated herein by reference in its entirety). Proteins were detected using antibodies against phospho-ERK½ (Cell Signaling #9101), total ERK½ (Cell Signaling #9102), CXCR4 (Abcam #ab2074), Elk-1 (Cell Signaling #9182), Phospho Elk-1 (Cell Signaling #9181), or beta-actin (Santa Cruz #sc-1615), in conjunction with an ECL detection system.
(§2) Western Blot and Protein Analysis. Cells were lysed, proteins resolved by electrophoresis, and electroblotting was carried out as described previously except that 20 ug protein was electrophoresed per gel lane for N15C6 cells and 100 ug protein for LNCaP cells (see, e.g., Begley L, et al., Aging Cell. 2005 December; 4(6):291-8; Begley L A, et al., J Biol. Chem. 2007 Sep. 14; 282(37):26767-74; each herein incorporated by reference in their entireties). Proteins were detected using antibodies against phospho-ERK½ (Cell Signaling #9101), total ERK½ (Cell Signaling, #9102), phospho-p65, (Rockland #100-401-264), total p65 (Rockland #100-4165), STAT3 (9139), phospho-STAT3 (9138), beta-actin (Santa Cruz #sc-1615), or tubulin (Upstate, #DM1A) in conjunction with an ECL detection system. Secondary antibodies included goat anti-rabbit (Cell Signaling, #7074) and goat anti-mouse (Santa Cruz, #SC-2005), and both were used at a 1:5000 concentration. Immunoblots shown are representative of triplicate experiments. Densitometric quantitation of immunoblot films was accomplished by scanning the original films and converting the .tiff files to grayscale. Images were inverted, and mean band intensities were measured using ImageJ (www, followed by, .nih.gov). The mean intensity of adjacent background was also measured for each band and subtracted from band intensity.

p65 subunit of NFkappaB = test: Western blot, p65 phosphorylation in LNCaP cells
Experimental: as §2

STAT3 = test: Western blot, STAT3 phosphorylation in LNCaP cells; settings: sub-nanomolar or nanomolar levels of CXCL5
Experimental: as §2

CXCL5: recombinant human CXCL5 (R&D Systems, 254-X), CXC-type chemokine
proliferation versus SF media alone [1]: significantly higher
proliferation versus SF media alone [2]: significantly higher
invasion through Matrigel versus control media / vehicle [3]: invaded; also recorded: significantly more
NFkappaB subunit activation (p65 subunit of NF-kappaB): evident only after treatment with 1 nM CXCL5
ERK ½ phosphorylation (ERK ½; 10 pM or 100 pM CXCL5): rapidly and transiently phosphorylated
activation of ERK ½ (ERK ½; nanomolar levels of CXCL5): not evident
phosphorylation of the p65 subunit of NFkappaB (p65 subunit of NFkappaB; 10 pM or 100 pM CXCL5): rapidly and transiently phosphorylated
activation of NFkappaB (p65 subunit of NFkappaB; nanomolar levels of CXCL5): not evident
activation of STAT3 (STAT3): not observed
